Test results published in patent US20070026065A1, “Solid, modified-release pharmaceutical dosage forms which can be administered orally” (Bayer HealthCare AG, priority 2004, published 2007).
In brackets after ≈: the same amount, converted by molar mass.

Key:
Solubility in water = assay type: physicochemical; conditions: 25° C.
Description: (§1) Accordingly, for the desired once a day administration, specific pharmaceutical formulations with modified release of the active ingredient (I), taking account of its physicochemical and biological properties, are required.

Plasma half-life = assay type: in vivo
Description: as §1

- solubility (Solubility in water): ~7 µg/mL (≈ 16.1 µM)
- half-life (Plasma half-life): ~7 h
SMILES: O=C(NC[C@H]1CN(c2ccc(N3CCOCC3=O)cc2)C(=O)O1)c1ccc(Cl)s1 [active ingredient (I), 5-Chloro-N-({(5S)-2-oxo-3-[4-(3-oxo-4-morpholinyl)phenyl]-1,3-oxazolidin-5-yl}methyl)-2-thiophenecarboxamide]
